pKd: −log10 of the molar value. Several values for one entry are separate records, joined by “and”; a condition that tells them apart may be missing. Equal values may be shown once. Entries after “also recorded” stand apart in the source; their conditions may differ. Read-outs that look alike come from different tables or passages of the source.
Columns and labels:
PfeA wild-type = biological target: T1, PfeA wild-type (Pseudomonas aeruginosa, UniProt Q05098); assay: isothermal titration calorimetry, PfeA wild-type; type: binding; conditions: ITC reverse titration (PfeA into Fe^3+-enterobactin), estimate
T1 construct: His7 tag with TEV protease site (N, cleaved yes); made in house; host or cells: E. coli C43 (DE3)
T1 sequence (Q05098 26-746): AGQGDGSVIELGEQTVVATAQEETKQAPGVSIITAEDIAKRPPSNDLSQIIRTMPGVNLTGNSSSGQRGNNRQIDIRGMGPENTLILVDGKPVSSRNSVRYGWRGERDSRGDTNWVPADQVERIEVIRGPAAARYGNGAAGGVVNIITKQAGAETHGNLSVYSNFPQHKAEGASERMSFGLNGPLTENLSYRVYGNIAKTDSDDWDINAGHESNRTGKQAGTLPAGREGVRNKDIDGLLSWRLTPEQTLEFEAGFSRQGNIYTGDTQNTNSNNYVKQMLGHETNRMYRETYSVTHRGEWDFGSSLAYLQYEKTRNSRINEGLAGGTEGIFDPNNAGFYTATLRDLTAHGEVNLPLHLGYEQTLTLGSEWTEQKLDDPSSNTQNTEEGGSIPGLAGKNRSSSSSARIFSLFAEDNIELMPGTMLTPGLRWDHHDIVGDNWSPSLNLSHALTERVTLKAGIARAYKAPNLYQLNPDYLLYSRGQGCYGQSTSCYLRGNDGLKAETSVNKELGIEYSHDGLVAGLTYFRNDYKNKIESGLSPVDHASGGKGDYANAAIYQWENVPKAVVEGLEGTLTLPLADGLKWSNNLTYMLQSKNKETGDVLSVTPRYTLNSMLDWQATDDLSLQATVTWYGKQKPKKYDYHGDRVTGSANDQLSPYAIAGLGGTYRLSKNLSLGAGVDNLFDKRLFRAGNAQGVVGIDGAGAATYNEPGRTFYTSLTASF
Method: (§1) The sites have different affinities for the ligand, one with high affinity and highly favourable enthalpy and the second with lower affinity and unfavourable enthalpy. Although the biphasic nature of the isotherm was reproducible, the numerical values varied. For K1, the binding constant was 20 to 100 nM; for K2 […]. […] The weaker binding at the […] site is consistent with the higher B-factor of the Fe^3+-enterobactin molecule observed in the complex crystal structures.
(§2) Affinities of PfeA wild-type and mutants for Fe^3+-enterobactin were measured by isothermal titration calorimetry using a VP-ITC instrument (GE Healthcare) at 25 °C. Titrations were performed using 57 × 5 μl injections of Fe^3+-enterobactin (70–55 μM) into 10 μM protein. The heats of dilution measured from injection of the ligands into the buffer were subtracted, and titration curves were fitted using AFFINImeter software with a two-site binding model. Concentrations of Fe^3+-enterobactin solutions were verified with UV/vis spectrophotometry using a published molar extinction coefficient of ε495 = 5600 M^−1 cm^−1. […] Reverse titration has been also performed (PfeA into Fe^3+-enterobactin), but data suffer from high heats of dilution in the beginning of the blank titration of PfeA into the buffer giving estimates of K1 = 95 nM and K2 = 4.5 μM for the wild-type.

PfeA G324V mutant = biological target: T2, PfeA G324V mutant (Pseudomonas aeruginosa, UniProt Q05098, G349V); assay: isothermal titration calorimetry, PfeA G324V; type: binding
T2 construct: His7 tag with TEV protease site (N, cleaved yes); made in house; host or cells: E. coli C43 (DE3)
T2 sequence (Q05098 26-746 G349V): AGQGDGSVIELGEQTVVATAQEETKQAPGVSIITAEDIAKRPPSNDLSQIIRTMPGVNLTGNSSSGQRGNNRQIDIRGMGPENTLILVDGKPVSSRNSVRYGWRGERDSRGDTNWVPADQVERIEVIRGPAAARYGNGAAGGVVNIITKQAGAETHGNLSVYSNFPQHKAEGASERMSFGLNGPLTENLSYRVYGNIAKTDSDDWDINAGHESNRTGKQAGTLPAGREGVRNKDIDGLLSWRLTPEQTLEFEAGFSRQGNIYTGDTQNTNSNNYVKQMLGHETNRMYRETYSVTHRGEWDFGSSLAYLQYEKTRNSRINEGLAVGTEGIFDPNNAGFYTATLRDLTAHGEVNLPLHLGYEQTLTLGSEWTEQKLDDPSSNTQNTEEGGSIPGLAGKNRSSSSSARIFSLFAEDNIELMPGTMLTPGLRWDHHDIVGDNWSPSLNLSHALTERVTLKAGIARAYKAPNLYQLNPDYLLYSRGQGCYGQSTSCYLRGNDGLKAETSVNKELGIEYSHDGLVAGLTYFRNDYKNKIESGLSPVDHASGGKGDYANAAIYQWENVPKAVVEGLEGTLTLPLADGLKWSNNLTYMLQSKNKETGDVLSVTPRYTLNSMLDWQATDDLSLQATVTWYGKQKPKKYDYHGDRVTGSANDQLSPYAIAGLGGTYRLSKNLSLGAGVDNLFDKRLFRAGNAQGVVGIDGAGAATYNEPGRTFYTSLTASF
Method: as §1, §2

PfeA Q482A mutant = biological target: T3, PfeA Q482A mutant (Pseudomonas aeruginosa, UniProt Q05098, Q507A); assay: isothermal titration calorimetry, PfeA Q482A; type: binding
T3 construct: His7 tag with TEV protease site (N, cleaved yes); made in house; host or cells: E. coli C43 (DE3)
T3 sequence (Q05098 26-746 Q507A): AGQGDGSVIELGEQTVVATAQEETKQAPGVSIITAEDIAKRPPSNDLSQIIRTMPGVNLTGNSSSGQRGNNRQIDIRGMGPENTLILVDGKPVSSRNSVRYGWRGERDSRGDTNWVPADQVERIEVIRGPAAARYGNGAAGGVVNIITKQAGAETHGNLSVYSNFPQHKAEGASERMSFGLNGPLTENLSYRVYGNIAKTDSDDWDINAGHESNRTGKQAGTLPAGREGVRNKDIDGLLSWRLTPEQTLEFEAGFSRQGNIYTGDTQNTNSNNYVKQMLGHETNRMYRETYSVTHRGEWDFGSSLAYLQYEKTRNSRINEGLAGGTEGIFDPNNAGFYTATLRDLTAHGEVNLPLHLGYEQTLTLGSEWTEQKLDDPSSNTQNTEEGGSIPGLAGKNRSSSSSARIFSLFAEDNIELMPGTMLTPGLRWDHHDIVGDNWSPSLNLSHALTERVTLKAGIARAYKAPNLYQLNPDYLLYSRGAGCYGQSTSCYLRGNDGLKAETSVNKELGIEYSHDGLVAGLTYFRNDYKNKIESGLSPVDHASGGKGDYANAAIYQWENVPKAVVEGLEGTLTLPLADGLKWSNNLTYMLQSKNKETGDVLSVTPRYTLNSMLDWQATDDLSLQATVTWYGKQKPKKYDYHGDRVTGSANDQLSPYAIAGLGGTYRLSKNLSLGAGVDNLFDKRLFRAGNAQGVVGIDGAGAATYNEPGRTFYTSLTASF
Method: as §1, §2

PfeA R480A mutant = biological target: T4, PfeA R480A mutant (Pseudomonas aeruginosa, UniProt Q05098, R505A); assay: isothermal titration calorimetry, PfeA R480A; type: binding
T4 construct: His7 tag with TEV protease site (N, cleaved yes); made in house; host or cells: E. coli C43 (DE3)
T4 sequence (Q05098 26-746 R505A): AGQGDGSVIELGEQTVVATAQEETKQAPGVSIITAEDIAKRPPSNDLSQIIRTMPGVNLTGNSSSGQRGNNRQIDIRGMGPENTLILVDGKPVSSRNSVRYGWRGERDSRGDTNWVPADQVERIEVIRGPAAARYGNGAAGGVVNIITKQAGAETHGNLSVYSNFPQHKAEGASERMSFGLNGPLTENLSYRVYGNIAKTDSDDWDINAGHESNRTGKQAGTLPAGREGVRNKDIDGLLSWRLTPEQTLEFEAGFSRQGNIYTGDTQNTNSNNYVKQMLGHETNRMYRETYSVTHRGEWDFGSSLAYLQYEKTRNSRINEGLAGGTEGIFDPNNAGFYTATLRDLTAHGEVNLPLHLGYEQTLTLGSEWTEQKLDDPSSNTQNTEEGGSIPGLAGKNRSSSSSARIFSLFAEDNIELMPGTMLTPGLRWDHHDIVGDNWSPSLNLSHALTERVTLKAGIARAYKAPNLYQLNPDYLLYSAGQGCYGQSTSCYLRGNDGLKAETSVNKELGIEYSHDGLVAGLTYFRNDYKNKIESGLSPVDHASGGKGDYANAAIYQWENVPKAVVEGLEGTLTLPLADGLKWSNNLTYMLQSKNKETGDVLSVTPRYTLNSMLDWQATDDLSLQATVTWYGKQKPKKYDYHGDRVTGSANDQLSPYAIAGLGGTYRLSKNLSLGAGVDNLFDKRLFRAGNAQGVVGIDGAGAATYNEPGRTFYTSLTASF
Method: as §1, §2

PfeA = biological target: T5, PfeA (Pseudomonas aeruginosa, UniProt Q05098); assay: coelution on S200 size-exclusion column, PfeA wild-type; type: binding
T5 construct: His7 tag with TEV protease site (N, cleaved yes); made in house; host or cells: E. coli C43 (DE3)
T5 sequence (Q05098 26-746): as the sequence (Q05098 26-746) above
Method: Proteins were incubated with the Fe^3+-siderophore before being loaded on a S200 size-exclusion column.
Crystals of PfeA appeared at 20 °C after few days by mixing 2 μl of protein solution (10 mg.ml^−1) with 1 μl of reservoir solution containing 11% polyethylene glycol 8000, 0.05 M ADA pH 6.5 and 0.1 M magnesium acetate. Crystals were frozen with the same solution containing 25% ethylene glycol. Enterobactin structure complexes were obtained by soaking apo crystals for few hours with mother liquor containing 5 mM Fe^3+-enterobactin before cryoprotection. For the others complexes, crystals were cross-linked by diffusion of 25% glutaraldehyde prior the soaking. Co-crystallisation attempts have been performed by incubating the protein for 1 h at room temperature with the ligand before been loaded on a S200 16/60 column and concentrated for setting up the crystallisation plates. No crystals have been obtained by co-crystallisation. Crystallisation conditions of the mutants were the same as for the wild-type.

[1] = tested on: ∆pfeA cells with no plasmid; assay: 55Fe-enterobactin binding and uptake assay, ∆pfeA; type: cell-based, Pseudomonas aeruginosa; conditions: for 55Fe count, Comptage / 55Fe-enterobactin bound/taken up: replicates, Figure 6b-c, listed as 55Fe-enterobactin
Method: (§3) Fig. 6 Effects of PfeA mutation in vivo. a Analysis of changes in the transcription of pfeA gene. PAO1 strain, its corresponding deletion mutant ∆pfeA and deletion mutants carrying the expression plasmid of PfeA wild-type (∆pfeA(pMMBpfeA) or the R480A-Q482A mutant (∆pfeA(pMMBpfeAR480AQ482A)) were grown in CAA medium supplemented with 10 µM enterobactin. The data were normalised relative to the reference gene uvrD, and are representative of three independent experiments performed in triplicate (n = 3). The results are given as a ratio between the values obtained for ∆pfeA, ∆pfeA(pMMBpfeA) and ∆pfeA(pMMBpfeAR480AQ482A) over those obtained for the PAO1 strain. b ^55Fe-enterobactin binding at the bacterial surface. Cells were grown as in panel a, and were incubated for 15 min with 200 µM CCCP before initiation of transport assays by the addition of 500 nM ^55Fe-enterobactin. After 30 min incubation, the radioactivity accumulated in the bacteria was counted. The results are expressed as pmol of ^55Fe-enterobactin bound per ml of cells at an OD600 of 1. The experiments have been repeated three times. c ^55Fe-enterobactin binding and uptake. Cells were grown as in panel a, and were incubated with or without 200 µM CCCP before initiation of transport assays by the addition of 500 nM ^55Fe-enterobactin. After 30 min incubations, the radioactivity accumulated in the bacteria was counted. The results are expressed as pmol of ^55Fe-enterobactin bound and transported per ml of cells at an OD600 of 1. The experiments have been repeated three times
(§4) The complex was prepared at ^55Fe concentrations of 50 μM, with a siderophore:iron (mol:mol) ratio of 20:1. P. aeruginosa strains were first grown overnight at 30 °C in LB broth, and were then washed, resuspended and cultured overnight at 30 °C in iron-deficient CAA medium (casamino acid medium, composition: 5 g.l^−1 low-iron CAA (Difco), 1.46 g.l^−1 K2HPO4 3H2O, 0.25 g.l^−1 MgSO4 7H2O) and in the presence of 10 µM enterobactin to induce the expression of PfeA. CAA is a highly iron-restricted medium with iron concentrations of 20 nM[59]. Afterwards bacteria were washed with 50 mM Tris-HCl pH 8.0, and diluted to an OD600 of 1. Cells solutions were divided in two, one batch being treated with 200 μM CCCP. This compound collapses the proton-motive force across the bacterial cell membranes, inhibiting TonB-dependent iron uptake. Binding and transport assays were initiated by adding 500 nM ^55Fe-enterobactin to the bacterial solutions treated or not with CCCP. After 30 min of incubations, cells were centrifuged, and the radioactivity associated to the bacteria was monitored in the cell pellets. For the cells treated with CCCP, the radioactivity in the cell pellets corresponds to the binding of ^55Fe-enterobactin to P. aeruginosa cell surface, since no uptake occurs. In the absence of CCCP, the radioactivity associated to the cells corresponds to ^55Fe-enterobactin binding to the cell surface and the uptake into the bacteria.

[2] = tested on: ∆pfeA(pMMBpfeA) cells (native PfeA); assay: 55Fe-enterobactin binding and uptake assay, ∆pfeA(pMMBpfeA); type: cell-based, Pseudomonas aeruginosa; conditions: for Comptage (dpm): replicate counts; for Comptage (dpm) / 55Fe incorporated, pmol/ml/DO600: Supplementary Fig 10, listed as 55Fe-enterobactin; for 55Fe incorporated, pmol/ml/DO600: replicates
Method: as §3, §4

## O=C(N[C@H]1COC(=O)[C@@H](NC(=O)c2cccc([O-])c2[O-])COC(=O)[C@@H](NC(=O)c2cccc([O-])c2[O-])COC1=O)c1cccc([O-])c1[O-].[Fe+3] [Fe^3+-enterobactin]
PfeA wild-type; read-out: K1, reverse titration
  pKd: 7.02
PfeA wild-type; read-out: K2, reverse titration
  pKd: 5.35
PfeA G324V mutant
  binding by ITC: no binding was detected; also recorded: did not show any detectable binding
PfeA Q482A mutant
  binding by ITC: biphasic isotherms, but with much reduced heat output and smaller K1 values; also recorded: weakened (but detectable) binding
PfeA R480A mutant
  binding by ITC: typical low affinity-binding curve profile; also recorded: weakened (but detectable) binding
PfeA
  coelution with protein on size-exclusion column: coelute with PfeA
[1]; CCCP treated cells (200 µM), 500 nM ^55Fe-enterobactin, 30 min
  ^55Fe-siderophore binding at the bacterial surface: same low level of binding as wild-type PAO1
[1]; ∆pfeA + CCCP
  55Fe count, Comptage: 1560 dpm and 1268 dpm and 1340 dpm
  55Fe-enterobactin bound/taken up: 20.0147 pmol/ml/DO600 and 16.2683 pmol/ml/DO600 and 17.1921 pmol/ml/DO600
[1]; ∆pfeA, no CCCP
  55Fe count, Comptage: 3228 dpm and 4151 dpm and 2977 dpm
  55Fe-enterobactin bound/taken up: 41.415 pmol/ml/DO600 and 53.257 pmol/ml/DO600 and 38.1947 pmol/ml/DO600
[2]; CCCP treated cells (200 µM), 500 nM ^55Fe-enterobactin, 30 min, compared with wild-type PAO1
  ^55Fe-siderophore binding at the bacterial surface: much higher levels of binding
[2]; cells not treated with CCCP, 500 nM ^55Fe-enterobactin, 30 min
  ^55Fe-enterobactin binding and uptake: less efficient
[2]; ∆pfeA (pMMBpfeA) (no CCCP)
  Comptage (dpm): 9474 dpm and 9114 dpm and 9574 dpm
  55Fe incorporated, pmol/ml/DO600: 121.551 pmol/ml/DO600 and 116.932 pmol/ml/DO600 and 122.834 pmol/ml/DO600
[2]; ∆pfeA (pMMBpfeA) + CCCP
  Comptage (dpm): 6090 dpm and 6603 dpm and 5856 dpm
  55Fe incorporated, pmol/ml/DO600: 78.1342 pmol/ml/DO600 and 84.716 pmol/ml/DO600 and 75.132 pmol/ml/DO600

Source: paper PMC6694100, “The complex of ferric-enterobactin with its transporter from Pseudomonas aeruginosa suggests a two-site model” (Nature Communications, 2019)
